Measured values reported in US11465989B2, “Guanidine compounds and use thereof” (IMMUNOMET THERAPEUTICS INC., priority 2014, dated 2022).
Where a name gives a salt, the structure may show the parent alone. Read-outs that look alike come from different tables or passages of the source.

Assays:
A549 cells = assay: Inhibition of OCR (XF Analyzer); format: cell-based
From the text: The electron transfer complex in mitochondria is composed of 5 complexes. The complex I accept electrons from NADH produced from glycolysis and TCA cycle and the electrons move to complex […] and the electron is finally transferred to O2 and water molecule is generated. During the electron transfer, proton gradient is generated and the chemical gradient is a driving source to synthesize ATP at complex V. The mitochondrial inhibition of complex I indirectly assessed by measuring the oxygen consumption rate (OCR) at complex IV. […] The solution outside of cells becomes acidic (lower pH) as lactate is transported to outside of cells. OCR and Extracellular acidification rate (ECAR) are determined by XF Analyzer (Seahorse Biosciences).
A549 cells were purchased from American Type Tissue Culture Collection ([…]) and cultured in RPMI 1640 supplied with 10% fetal bovine serum (FBS) and antibiotic-antimycotic (Lifetech, CA). A549 cells were separated with 0.5% Trypsin-EDTA and 3,000 cells were plated on 1 mg/ml poly-D-lysine (Sigma, P6407) coated XF 96 well […]. A549 cells were allowed to adhere to the wells for 24 hours under the condition of temperature, 37° C. and 5% CO2 The sensor cartridge of XF Analyzer was soaked in 200 Ad of Calibrant solution (Seahorse, MA) in a clear 96-well plate at 37° C. for 24 hours. The compounds of the present invention were diluted with RPMI 1640 without FBS, transferred to A549 cells on XF 96 well plate, and incubated further for 23 hours at 37° C. and 5% CO2. After incubation, the compound solution was exchanged with pre-warmed and pH adjusted (pH7.4) XF assay media (Seahorse) supplied with 15 mM D-glucose (Sigma), 15 mM sodium pyruvate (Lifetechnologies, CA) and 4 mM L-glutamine (Lifetechnologies, CA). The compounds of present invention were prepared in XF Assay media and added to the assay plate. The assay plate was equilibrated in XF Analyzer for 1 hour, and the reading were started by sensor cartridge. The cytotoxicity assay was followed using Cyquant (Lifetechnologies, CA) in order to calibrate the inhibition with cytotoxicity of compounds. The concentrations of the compounds were tested at […] and IC50 value was obtained from the inhibited values. That is, from OCR inhibition values at each concentration of the compound, IC50 was calculated according to Prism's dose response curve fitting.
In Table 1, the levels of OCR IC50 are evaluated by the following.

SK-MEL-28 cells = assay: Cytotoxicity in low glucose condition (MTT); format: cell-based; conditions: SK-MEL-28, 0.75 mM glucose, 72 hours, read-out: SK-MEL-28 0.75 mM glucose Cell viability (IC50 ia)
From the text: The inhibition of oxidative phosphorylation (OXPHOS) is not cytotoxic to cells in normal glucose condition, because it is postulated that normal cells have compensatory mechanism under energy stress conditions such as low glucose. However OXPHOS inhibitors show cytotoxic effect on cells in the glucose deprived condition (BirsoyK, 2014). The glucose deprived condition is observed in tumor microenvironment potentially due to poor angiogenesis. Therefore the OXPHOS inhibitors may show anti-cancer effect on cancer cells in low glucose condition that may depict tumor microenvironment.
The compounds of the present invention were evaluated their cytotoxicity in SK-MEL-28, melanoma with 0.75 mM glucose supplement. The cytotoxic effect is compared with the cytotoxicity caused by phenformin. The cytotoxicity in low glucose condition is correlated with inhibition of oxygen consumption in mitochondria.
SK-MEL-28 (HTB-72) is a melanoma cell line obtained from ATCC (MA) and cultured in RPMI 1640 media (Lifetechnologies, CA) with supplement of 10% FBS and antibiotic-antimycotic (Lifetechnologies, CA). RPMI 1640 (-Glucose) was used to prepare low glucose media and 0.75 mM glucose was supplied with D-(+)-glucose solution from Sigma. SK-MEL-28 cells were separated from culture plate using 0.5% trypsin-EDTA and 5,000 cells were plated in 96-well plate with low glucose media. After incubation at 37° C. for 24 hour, 5% CO2, the cells were treated with the compounds of present invention in FBS-free media for 72 hours. The cytotoxicity was measured by the MTT (AMRESCO, OH) assay. NADH-dependent cellular oxidoreductase reduces MTT to its insoluble […] with purple color. The enzyme depends on cell number or energy state of cells. 10 μl of 5 mg/ml MIT solution was added to each well of the assay plate and skip the well for blank. The plate was incubated at 37° C. and 5% CO2 for 2 hours. The MTT solution was removed from each well and 100 μl of DMSO was added. The plate was read by VICTOR X3 Multilabel Counter at the wavelength of 550 nm. In Table 2, the levels of IC50 are evaluated by the following criteria.

Compound: COc1cc(Cl)ccc1CCNC(=N)NC(=N)N [Example 80, N-1-(2-methoxy-4-chloro)phenethylbiguanide hydrochloride]
- IC50 (A549 cells; Homo sapiens, A549, 24 h): < 2 µM
- IC50 (SK-MEL-28 cells; Homo sapiens): > 10 µM

Compound: Cc1cc(CCNC(=N)NC(=N)N)ccc1Cl [Example 61, N-1-(4-chloro-3-methyl)phenethylbiguanide hydrochloride]
- IC50 (A549 cells; Homo sapiens, A549, 24 h): 2 to 5 µM
- IC50 (SK-MEL-28 cells; Homo sapiens): < 5 µM

Compound: N=C(N)NC(=N)NCCc1ccc(Cl)c(I)c1 [Example 74, N-1-(3-iodo-4-chloro)phenethylbiguanide hydrochloride]
- IC50 (A549 cells; Homo sapiens, A549, 24 h): < 2 µM
- IC50 (SK-MEL-28 cells; Homo sapiens): < 5 µM

Compound: N=C(N)NCCC1CCCC1 [Example 204, 1-(2-cyclopentylethyl) guanide hydrochloride]
- IC50 (A549 cells; Homo sapiens, A549, 24 h): 2 to 5 µM
- IC50 (SK-MEL-28 cells; Homo sapiens): > 10 µM

Compound: N=C(N)NC(=N)NCc1ccc(-c2ccccc2)cc1 [Example 49, N-1-(4-phenyl)benzylbiguanide hydrochloride]
- IC50 (A549 cells; Homo sapiens, A549, 24 h): > 5 µM
- IC50 (SK-MEL-28 cells; Homo sapiens): > 10 µM

Compound: N=C(N)NC(=N)NCCc1ccc2c(c1)CCC2 [Example 66, N-1-2-(2,3-dihydro-1H-inden-5-yl)ethylbiguanide hydrochloride]
- IC50 (A549 cells; Homo sapiens, A549, 24 h): 2 to 5 µM
- IC50 (SK-MEL-28 cells; Homo sapiens): < 5 µM

Compound: N=C(N)NC(=N)NCCc1ccccc1Cl [Example 3, N-1-(2-chloro)phenethylbiguanide hydrochloride]
- IC50 (A549 cells; Homo sapiens, A549, 24 h): < 2 µM
- IC50 (SK-MEL-28 cells; Homo sapiens): 5 to 10 µM

Compound: N=C(N)NCCc1ccc2c(c1)CCCC2 [Example 183, 1-(2-(5,6,7,8-tetrahydronaphthalen-2-yl)ethyl)guanide hydrochloride]
- IC50 (A549 cells; Homo sapiens, A549, 24 h): < 2 µM
- IC50 (SK-MEL-28 cells; Homo sapiens): < 5 µM

Compound: N=C(N)NC(=N)NCCc1ccc2c(c1)CCCC2 [Example 30, N-1-(2-(5,6,7,8-tetrahydronaphthalen-2-yl)ethyl)biguanide hydrochloride]
- IC50 (A549 cells; A549, 24 hrs): > 5 µM
- IC50 (SK-MEL-28 cells): < 5 µM

Compound: COc1cc(I)ccc1CCNC(=N)NC(=N)N [Example 79, N-1-(2-methoxy-4-iodo)phenethylbiguanide hydrochloride]
- IC50 (A549 cells; Homo sapiens, A549, 24 h): < 2 µM
- IC50 (SK-MEL-28 cells; Homo sapiens): 5 to 10 µM

Compound: Cc1cc(CNC(=N)NC(=N)N)ccc1Br [Example 68, N-1-(4-bromo-3-methyl)benzylbiguanide hydrochloride]
- IC50 (A549 cells; Homo sapiens, A549, 24 h): 2 to 5 µM
- IC50 (SK-MEL-28 cells; Homo sapiens): 5 to 10 µM

Compound: Cc1cc(F)ccc1CCNC(=N)N [Example 169, 1-(4-fluoro-2-methylphenethyl)guanide hydrochloride]
- IC50 (A549 cells; Homo sapiens, A549, 24 h): > 5 µM
- IC50 (SK-MEL-28 cells; Homo sapiens): > 10 µM

Compound: N=C(N)NC(=N)NCc1ccc2c(c1)CCCC2 [Example 48, N-1-2-(5,6,7,8-tetrahydronaphthalen-2-yl)methanebiguanide hydrochloride]
- IC50 (A549 cells; Homo sapiens, A549, 24 h): < 2 µM
- IC50 (SK-MEL-28 cells; Homo sapiens): > 10 µM

Compound: CCCNC(=N)NC(=N)NCCc1ccc(Cl)c(Cl)c1 [Example 128, N-1-propyl-N-5-(3,4-dichloro)phenethylbiguanide hydrochloride]
- IC50 (A549 cells; Homo sapiens, A549, 24 h): > 5 µM
- IC50 (SK-MEL-28 cells; Homo sapiens): < 5 µM

Compound: Cc1ccc(CNC(=N)NC(=N)N)c(C)c1 [Example 18, N-1-(2,4-dimethyl)benzylbiguanide hydrochloride]
- IC50 (A549 cells; Homo sapiens, A549, 24 h): > 5 µM
- IC50 (SK-MEL-28 cells; Homo sapiens): > 10 µM

Compound: N=C(N)NCCc1ccc(-c2ccccc2)cc1 [Example 195, 1-(4-phenylphenethyl)guanide hydrochloride]
- IC50 (A549 cells; Homo sapiens, A549, 24 h): 2 to 5 µM
- IC50 (SK-MEL-28 cells; Homo sapiens): < 5 µM

Compound: N=C(N)NCc1ccc2c(c1)CCCC2 [Example 199, 1-((5,6,7,8-tetrahydronaphthalen-2-yl)methylguanide hydrochloride]
- IC50 (A549 cells; Homo sapiens, A549, 24 h): > 5 µM
- IC50 (SK-MEL-28 cells; Homo sapiens): > 10 µM

Compound: N=C(N)NC(=N)NCCc1ccccc1Br [Example 26, N-1-(2-bromo)phenethylbiguanide hydrochloride]
- IC50 (A549 cells; Homo sapiens, A549, 24 h): < 2 µM
- IC50 (SK-MEL-28 cells; Homo sapiens): < 5 µM

Compound: N=C(N)NC(=N)NCCc1ccc(Br)c(Br)c1 [Example 70, N-1-(3,4-dibromo)phenethylbiguanide hydrochloride]
- IC50 (A549 cells; Homo sapiens, A549, 24 h): 2 to 5 µM
- IC50 (SK-MEL-28 cells; Homo sapiens): < 5 µM

Compound: N=C(N)NCC1CCCCC1 [Example 205, 1-(1-cyclohexylmethyl) guanide hydrochloride]
- IC50 (A549 cells; Homo sapiens, A549, 24 h): 2 to 5 µM
- IC50 (SK-MEL-28 cells; Homo sapiens): > 10 µM

Compound: Cc1ccccc1CCNC(=N)N [Example 161, 1-(2-methylphenethyl)guanide hydrochloride]
- IC50 (A549 cells; Homo sapiens, A549, 24 h): 2 to 5 µM
- IC50 (SK-MEL-28 cells; Homo sapiens): > 10 µM

Compound: N=C(N)NC(=N)NCCc1ccc(I)c(Br)c1 [Example 72, N-1-(4-iodo-3-bromo)phenethylbiguanide hydrochloride]
- IC50 (A549 cells; Homo sapiens, A549, 24 h): > 5 µM
- IC50 (SK-MEL-28 cells; Homo sapiens): 5 to 10 µM

Compound: COc1cc(CCNC(=N)NC(=N)N)ccc1I [Example 77, N-1-(4-iodo-3-methoxy)phenethylbiguanide hydrochloride]
- IC50 (A549 cells; Homo sapiens, A549, 24 h): 2 to 5 µM
- IC50 (SK-MEL-28 cells; Homo sapiens): 5 to 10 µM

Compound: N=C(N)NCCC1CCCCC1 [Example 197, 1-(2-cyclohexylethyl)guanide hydrochloride]
- IC50 (A549 cells; Homo sapiens, A549, 24 h): 2 to 5 µM
- IC50 (SK-MEL-28 cells; Homo sapiens): > 10 µM

Compound: N=C(N)NCc1c(F)cc(F)cc1F [Example 153, 1-(2,4,6-trifluorobenzyl)guanide hydrochloride]
- IC50 (A549 cells; Homo sapiens, A549, 24 h): > 5 µM
- IC50 (SK-MEL-28 cells; Homo sapiens): > 10 µM

Compound: N=C(N)NC(=N)NCCc1ccc2c(c1)CCCC2 [Example 44, N-1-2-(5,6,7,8-tetrahydronaphthalen-2-yl)ethylbiguanide hydrochloride]
- IC50 (A549 cells; Homo sapiens, A549, 24 h): 2 to 5 µM
- IC50 (SK-MEL-28 cells; Homo sapiens): < 5 µM

Compound: N=C(N)NCCc1ccc(C2CC2)cc1 [Example 182, 1-(4-cyclopropylphenethyl)guanide hydrochloride]
- IC50 (A549 cells; Homo sapiens, A549, 24 h): 2 to 5 µM
- IC50 (SK-MEL-28 cells; Homo sapiens): 5 to 10 µM

Compound: Cc1ccccc1CCNC(=N)NC(=N)N [Example 22, N-1-(2-methyl)phenethylbiguanide hydrochloride]
- IC50 (A549 cells; Homo sapiens, A549, 24 h): < 2 µM
- IC50 (SK-MEL-28 cells; Homo sapiens): > 10 µM

Compound: CNC(=N)NC(=N)NCCc1ccc2c(c1)CCCC2 [Example 126, N-1-methyl-N-5-(2-(5,6,7,8-tetrahydronaphthalen-2-yl)ethyl) biguanide hydrochloride]
- IC50 (A549 cells; Homo sapiens, A549, 24 h): > 5 µM
- IC50 (SK-MEL-28 cells; Homo sapiens): < 5 µM

Compound: Cc1ccc(CCNC(=N)NC(=N)N)cc1Cl [Example 50, N-1-(3-chloro-4-methyl)phenethylbiguanide hydrochloride]
- IC50 (A549 cells; Homo sapiens, A549, 24 h): 2 to 5 µM
- IC50 (SK-MEL-28 cells; Homo sapiens): < 5 µM

Compound: N=C(N)NC(=N)NCCc1ccc(Br)c(I)c1 [Example 75, N-1-(3-iodo-4-bromo)phenethylbiguanide hydrochloride]
- IC50 (A549 cells; Homo sapiens, A549, 24 h): < 2 µM
- IC50 (SK-MEL-28 cells; Homo sapiens): < 5 µM

Compound: Cc1cc(F)ccc1CCNC(=N)NC(=N)N [Example 17, N-1-(4-fluoro-2-methyl)phenethylbiguanide hydrochloride]
- IC50 (A549 cells; Homo sapiens, A549, 24 h): 2 to 5 µM
- IC50 (SK-MEL-28 cells; Homo sapiens): > 10 µM

Compound: N=C(N)NC(=N)NCc1ccc(Cl)c(Cl)c1 [Example 37, hydrochloride]
- IC50 (A549 cells; Homo sapiens, A549, 24 h): > 5 µM
- IC50 (SK-MEL-28 cells; Homo sapiens): 5 to 10 µM

Compound: N=C(N)NC(=N)NCCc1ccc(F)c(Cl)c1 [Example 52, N-1-(3-chloro-4-fluoro)phenethylbiguanide hydrochloride]
- IC50 (A549 cells; Homo sapiens, A549, 24 h): > 5 µM
- IC50 (SK-MEL-28 cells; Homo sapiens): 5 to 10 µM

Compound: N=C(N)NC(=N)NCCc1ccc(I)c(Cl)c1 [Example 78, N-1-(3-chloro-4-iodo)phenethylbiguanide hydrochloride]
- IC50 (A549 cells; Homo sapiens, A549, 24 h): < 2 µM
- IC50 (SK-MEL-28 cells; Homo sapiens): < 5 µM
